Data from ChEMBL document CHEMBL4229500, “Iodine-mediated cyclization of cannabigerol (CBG) expands the cannabinoid biological and chemical space” (Bioorg Med Chem, 2018).

Tests used:
Assay type in all cases: cell-based; call rule not given here
[1] = biological target: T1, Transient receptor potential cation channel subfamily V member 1 (Homo sapiens, UniProt Q8NER1); assay: Agonist activity at human TRPV1 expressed in HEK293 cells assessed as increase in intracellular calcium level by Fluo-4-AM dye based fluorescence assay relative to ionomycin
T1 sequence (Q8NER1 whole entry): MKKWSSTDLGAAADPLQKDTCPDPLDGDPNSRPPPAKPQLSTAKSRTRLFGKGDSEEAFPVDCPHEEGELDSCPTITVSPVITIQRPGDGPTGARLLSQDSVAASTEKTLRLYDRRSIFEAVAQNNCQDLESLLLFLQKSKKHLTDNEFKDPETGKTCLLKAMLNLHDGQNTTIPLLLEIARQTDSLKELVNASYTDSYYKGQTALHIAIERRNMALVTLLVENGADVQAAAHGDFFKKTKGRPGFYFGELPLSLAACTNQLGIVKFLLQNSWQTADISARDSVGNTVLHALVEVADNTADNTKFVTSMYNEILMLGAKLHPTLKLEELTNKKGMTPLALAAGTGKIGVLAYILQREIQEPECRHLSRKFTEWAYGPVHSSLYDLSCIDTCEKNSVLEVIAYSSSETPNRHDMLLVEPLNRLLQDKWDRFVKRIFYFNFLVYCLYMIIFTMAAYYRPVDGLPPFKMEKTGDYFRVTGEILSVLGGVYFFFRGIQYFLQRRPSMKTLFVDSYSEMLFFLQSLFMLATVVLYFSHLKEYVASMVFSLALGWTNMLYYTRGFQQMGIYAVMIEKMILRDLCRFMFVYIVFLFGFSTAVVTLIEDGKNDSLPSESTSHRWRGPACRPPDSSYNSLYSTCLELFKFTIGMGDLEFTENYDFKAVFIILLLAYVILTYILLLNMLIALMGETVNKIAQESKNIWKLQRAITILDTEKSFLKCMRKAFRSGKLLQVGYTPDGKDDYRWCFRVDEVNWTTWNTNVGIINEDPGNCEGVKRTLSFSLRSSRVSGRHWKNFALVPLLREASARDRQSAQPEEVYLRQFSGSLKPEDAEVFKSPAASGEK

[2] = biological target: T1, Transient receptor potential cation channel subfamily V member 1; assay: Antagonist activity at human TRPV1 expressed in HEK293 cells assessed as inhibition of capsaicin-induced increase in intracellular calcium level pretreated for 5 mins followed by capsaicin addition by Fluo-4-AM dye based fluorescence assay
[3] = biological target: Transient receptor potential cation channel subfamily A member 1 (Rattus norvegicus) (UniProt Q6RI86); assay: Agonist activity at rat TRPA1 expressed in HEK293 cells assessed as increase in intracellular calcium level by fluo-4-AM dye based fluorescence assay relative to AITC
Chain of Transient receptor potential cation channel subfamily A member 1 (Rattus norvegicus) (Q6RI86 whole entry): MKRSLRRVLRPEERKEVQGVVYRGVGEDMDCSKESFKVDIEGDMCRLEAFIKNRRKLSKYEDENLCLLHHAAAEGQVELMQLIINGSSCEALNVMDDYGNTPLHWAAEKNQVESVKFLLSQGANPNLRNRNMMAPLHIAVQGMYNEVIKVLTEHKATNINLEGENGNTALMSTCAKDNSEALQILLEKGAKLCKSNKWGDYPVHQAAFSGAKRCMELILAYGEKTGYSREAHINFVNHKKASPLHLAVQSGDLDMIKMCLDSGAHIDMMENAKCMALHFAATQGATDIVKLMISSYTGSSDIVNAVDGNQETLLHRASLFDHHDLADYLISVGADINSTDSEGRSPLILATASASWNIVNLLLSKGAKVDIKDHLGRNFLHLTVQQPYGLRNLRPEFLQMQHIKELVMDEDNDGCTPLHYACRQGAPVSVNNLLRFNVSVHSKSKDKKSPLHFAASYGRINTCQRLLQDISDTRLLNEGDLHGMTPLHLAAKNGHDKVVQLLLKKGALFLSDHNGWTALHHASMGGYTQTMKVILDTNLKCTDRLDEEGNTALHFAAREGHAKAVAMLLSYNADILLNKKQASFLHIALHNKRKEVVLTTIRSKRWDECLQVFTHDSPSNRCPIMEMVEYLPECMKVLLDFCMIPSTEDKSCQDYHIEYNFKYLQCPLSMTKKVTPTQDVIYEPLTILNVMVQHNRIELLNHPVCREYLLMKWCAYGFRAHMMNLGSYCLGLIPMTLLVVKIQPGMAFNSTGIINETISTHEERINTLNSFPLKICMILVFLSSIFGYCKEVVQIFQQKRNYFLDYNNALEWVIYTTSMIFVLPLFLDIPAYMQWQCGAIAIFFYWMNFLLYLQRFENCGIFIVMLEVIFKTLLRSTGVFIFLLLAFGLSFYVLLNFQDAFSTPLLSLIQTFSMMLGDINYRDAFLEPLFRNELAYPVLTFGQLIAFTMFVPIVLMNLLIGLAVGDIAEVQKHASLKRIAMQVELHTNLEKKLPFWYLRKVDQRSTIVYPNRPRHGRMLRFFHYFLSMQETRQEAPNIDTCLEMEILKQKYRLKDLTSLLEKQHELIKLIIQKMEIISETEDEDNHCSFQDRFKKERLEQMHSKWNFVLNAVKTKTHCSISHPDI

[4] = biological target: T1, Transient receptor potential cation channel subfamily V member 1; assay: Agonist activity at human TRPV1 expressed in HEK293 cells assessed as increase in intracellular calcium level by Fluo-4-AM dye based fluorescence assay
[5] = biological target: T2, Transient receptor potential cation channel subfamily V member 4 (Rattus norvegicus, UniProt Q9ERZ8); assay: Antagonist activity at […] expressed in HEK293 cells assessed as inhibition of GSK1016790A-induced increase in intracellular calcium level pretreated for 5 mins followed by GSK1016790A addition by Fluo-4-AM dye based fluorescence assay
T2 sequence (Q9ERZ8 whole entry): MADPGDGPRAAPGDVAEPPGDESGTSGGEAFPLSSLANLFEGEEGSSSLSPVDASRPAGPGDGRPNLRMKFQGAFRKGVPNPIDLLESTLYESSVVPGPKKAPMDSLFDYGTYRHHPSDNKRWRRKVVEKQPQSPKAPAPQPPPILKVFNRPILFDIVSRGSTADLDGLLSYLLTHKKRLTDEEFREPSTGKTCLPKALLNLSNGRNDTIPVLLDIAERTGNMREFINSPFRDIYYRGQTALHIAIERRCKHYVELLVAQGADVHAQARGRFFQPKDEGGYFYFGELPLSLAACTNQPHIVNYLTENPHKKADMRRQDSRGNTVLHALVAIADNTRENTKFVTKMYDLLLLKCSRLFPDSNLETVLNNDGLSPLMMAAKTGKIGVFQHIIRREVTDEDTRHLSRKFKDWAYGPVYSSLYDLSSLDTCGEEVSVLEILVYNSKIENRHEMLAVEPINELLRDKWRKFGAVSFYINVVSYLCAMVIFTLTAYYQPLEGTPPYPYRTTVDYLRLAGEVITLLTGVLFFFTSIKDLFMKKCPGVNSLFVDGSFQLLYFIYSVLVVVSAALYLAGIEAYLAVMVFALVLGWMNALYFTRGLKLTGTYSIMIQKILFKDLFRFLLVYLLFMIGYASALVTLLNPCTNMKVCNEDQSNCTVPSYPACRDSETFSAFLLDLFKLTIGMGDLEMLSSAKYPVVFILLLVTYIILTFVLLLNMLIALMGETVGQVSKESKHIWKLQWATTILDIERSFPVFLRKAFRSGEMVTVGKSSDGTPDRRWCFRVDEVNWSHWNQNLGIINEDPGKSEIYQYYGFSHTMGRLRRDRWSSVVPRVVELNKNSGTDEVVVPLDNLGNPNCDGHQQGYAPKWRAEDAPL

[6] = biological target: T3, Transient receptor potential cation channel, subfamily V, member 3 (Rattus norvegicus, UniProt E9PU00); assay: Antagonist activity at […] expressed in HEK293 cells assessed as inhibition of thymol-induced increase in intracellular calcium level pretreated for 5 mins followed by thymol addition by Fluo-4-AM dye based fluorescence assay
T3 sequence (E9PU00 whole entry): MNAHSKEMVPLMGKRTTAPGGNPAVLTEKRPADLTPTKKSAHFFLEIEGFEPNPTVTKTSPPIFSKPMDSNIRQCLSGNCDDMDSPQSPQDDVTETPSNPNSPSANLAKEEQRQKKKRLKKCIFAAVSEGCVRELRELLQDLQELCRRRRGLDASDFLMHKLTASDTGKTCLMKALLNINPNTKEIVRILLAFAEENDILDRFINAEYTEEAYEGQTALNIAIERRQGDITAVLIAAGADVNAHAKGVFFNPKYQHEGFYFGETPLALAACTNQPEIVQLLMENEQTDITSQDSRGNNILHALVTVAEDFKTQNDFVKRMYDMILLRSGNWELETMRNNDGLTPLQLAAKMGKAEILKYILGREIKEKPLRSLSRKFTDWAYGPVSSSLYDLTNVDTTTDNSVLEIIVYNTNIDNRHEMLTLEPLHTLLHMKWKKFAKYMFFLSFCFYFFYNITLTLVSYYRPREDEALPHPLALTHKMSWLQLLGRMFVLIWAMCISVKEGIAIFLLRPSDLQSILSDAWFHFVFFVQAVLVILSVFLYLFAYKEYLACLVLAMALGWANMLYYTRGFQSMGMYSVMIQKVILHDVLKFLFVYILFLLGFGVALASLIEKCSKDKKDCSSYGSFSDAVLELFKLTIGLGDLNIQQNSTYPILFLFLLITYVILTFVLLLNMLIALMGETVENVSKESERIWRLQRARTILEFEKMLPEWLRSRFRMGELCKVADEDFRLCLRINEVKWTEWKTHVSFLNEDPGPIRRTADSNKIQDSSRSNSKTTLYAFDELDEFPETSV

[7] = biological target: T4, Transient receptor potential cation channel subfamily V member 2 (Rattus norvegicus, UniProt Q9WUD2); assay: Antagonist activity at rat TRPV2 expressed in HEK293 cells assessed as inhibition of LPC-induced increase in intracellular calcium level pretreated for 5 mins followed by LPC addition by Fluo-4-AM dye based fluorescence assay
T4 sequence (Q9WUD2 whole entry): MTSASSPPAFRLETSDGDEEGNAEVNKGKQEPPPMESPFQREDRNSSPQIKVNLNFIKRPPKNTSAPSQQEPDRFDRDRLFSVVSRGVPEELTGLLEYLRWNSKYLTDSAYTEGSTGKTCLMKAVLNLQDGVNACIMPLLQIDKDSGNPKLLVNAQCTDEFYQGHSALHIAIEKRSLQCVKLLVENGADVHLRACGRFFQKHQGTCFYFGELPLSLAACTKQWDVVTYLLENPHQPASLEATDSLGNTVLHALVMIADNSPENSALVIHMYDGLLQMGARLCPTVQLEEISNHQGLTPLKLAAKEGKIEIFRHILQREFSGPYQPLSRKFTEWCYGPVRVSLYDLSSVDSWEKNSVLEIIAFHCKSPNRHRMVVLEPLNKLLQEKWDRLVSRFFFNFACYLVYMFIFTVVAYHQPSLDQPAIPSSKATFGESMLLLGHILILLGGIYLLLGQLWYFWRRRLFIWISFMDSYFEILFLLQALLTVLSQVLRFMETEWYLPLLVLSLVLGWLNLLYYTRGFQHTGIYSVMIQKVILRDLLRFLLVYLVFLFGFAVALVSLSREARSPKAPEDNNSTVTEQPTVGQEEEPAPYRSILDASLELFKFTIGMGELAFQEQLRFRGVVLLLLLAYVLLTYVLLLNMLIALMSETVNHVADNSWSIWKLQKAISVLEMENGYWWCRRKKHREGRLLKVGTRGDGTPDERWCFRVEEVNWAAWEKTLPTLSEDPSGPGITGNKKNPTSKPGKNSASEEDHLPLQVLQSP

[8] = biological target: T3, Transient receptor potential cation channel, subfamily V, member 3; assay: Agonist activity at […] expressed in HEK293 cells assessed as increase in intracellular calcium level by Fluo-4-AM dye based fluorescence assay
[9] = biological target: Transient receptor potential cation channel subfamily V member 4 (Rattus norvegicus) (UniProt Q9ERZ8); assay: Agonist activity at rat TRPV4 expressed in HEK293 cells assessed as increase in intracellular calcium level by Fluo-4-AM dye based fluorescence assay relative to ionomycin
Chain of Transient receptor potential cation channel subfamily V member 4 (Rattus norvegicus) (Q9ERZ8 whole entry): as the sequence (Q9ERZ8 whole entry) above

[10] = biological target: T5, Transient receptor potential cation channel, subfamily V, member 3 (Rattus norvegicus) (UniProt E9PU00); assay: Agonist activity at […] expressed in HEK293 cells assessed as increase in intracellular calcium level by Fluo-4-AM dye based fluorescence assay relative to ionomycin
T5 sequence (whole entry): T3 sequence (E9PU00 whole entry)

[11] = biological target: T6, Transient receptor potential cation channel subfamily V member 2 (Rattus norvegicus) (UniProt Q9WUD2); assay: Agonist activity at rat TRPV2 expressed in HEK293 cells assessed as increase in intracellular calcium level by Fluo-4-AM dye based fluorescence assay relative to ionomycin
T6 sequence (whole entry): T4 sequence (Q9WUD2 whole entry)

[12] = biological target: T4, Transient receptor potential cation channel subfamily V member 2; assay: Agonist activity at rat TRPV2 expressed in HEK293 cells assessed as increase in intracellular calcium level by Fluo-4-AM dye based fluorescence assay
[13] = biological target: T2, Transient receptor potential cation channel subfamily V member 4; assay: Agonist activity at rat TRPV4 expressed in HEK293 cells assessed as increase in intracellular calcium level by Fluo-4-AM dye based fluorescence assay
[14] = biological target: T7, Transient receptor potential cation channel subfamily A member 1 (Rattus norvegicus, UniProt Q6RI86); assay: Agonist activity at rat TRPA1 expressed in HEK293 cells assessed as increase in intracellular calcium level by fluo-4-AM dye based fluorescence assay
T7 sequence (Q6RI86 whole entry): as the sequence (Q6RI86 whole entry) above

[15] = biological target: Transient receptor potential cation channel subfamily M member 8 (Rattus norvegicus, UniProt Q8R455); assay: Antagonist activity at rat TRPM8 expressed in HEK293 cells assessed as inhibition of icilin-induced increase in intracellular calcium level pretreated for 5 mins followed by icilin addition by Fluo-4-AM dye based fluorescence assay
Chain of Transient receptor potential cation channel subfamily M member 8 (Q8R455 whole entry): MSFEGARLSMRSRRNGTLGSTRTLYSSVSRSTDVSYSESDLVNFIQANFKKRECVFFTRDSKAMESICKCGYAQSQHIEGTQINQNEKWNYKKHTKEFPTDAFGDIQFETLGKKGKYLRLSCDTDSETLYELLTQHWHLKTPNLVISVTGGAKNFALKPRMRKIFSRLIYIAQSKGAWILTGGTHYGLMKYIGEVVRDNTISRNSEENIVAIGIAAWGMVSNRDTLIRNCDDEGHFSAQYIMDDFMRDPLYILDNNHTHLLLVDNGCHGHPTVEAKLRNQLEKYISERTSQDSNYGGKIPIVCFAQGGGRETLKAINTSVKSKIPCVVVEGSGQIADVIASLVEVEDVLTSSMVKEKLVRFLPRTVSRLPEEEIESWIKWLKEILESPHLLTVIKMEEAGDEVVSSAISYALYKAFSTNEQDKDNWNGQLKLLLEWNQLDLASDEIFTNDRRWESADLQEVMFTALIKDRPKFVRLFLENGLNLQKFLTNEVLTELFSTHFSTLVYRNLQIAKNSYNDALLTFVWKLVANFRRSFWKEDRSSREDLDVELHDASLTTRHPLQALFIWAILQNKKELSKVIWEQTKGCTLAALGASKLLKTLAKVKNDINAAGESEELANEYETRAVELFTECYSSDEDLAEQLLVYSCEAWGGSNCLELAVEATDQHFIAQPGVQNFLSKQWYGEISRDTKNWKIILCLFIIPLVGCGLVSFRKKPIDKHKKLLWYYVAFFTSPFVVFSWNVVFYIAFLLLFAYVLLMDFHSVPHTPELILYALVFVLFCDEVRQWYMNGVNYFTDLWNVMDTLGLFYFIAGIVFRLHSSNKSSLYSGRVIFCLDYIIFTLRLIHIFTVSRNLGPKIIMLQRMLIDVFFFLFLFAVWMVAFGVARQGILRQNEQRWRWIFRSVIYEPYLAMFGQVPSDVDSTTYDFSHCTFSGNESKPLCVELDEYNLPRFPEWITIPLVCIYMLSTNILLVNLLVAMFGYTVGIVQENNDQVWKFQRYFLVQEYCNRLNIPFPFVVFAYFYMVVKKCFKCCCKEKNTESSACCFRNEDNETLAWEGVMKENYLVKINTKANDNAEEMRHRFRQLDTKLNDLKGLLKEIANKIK

[16] = biological target: T7, Transient receptor potential cation channel subfamily A member 1; assay: Antagonist activity at rat TRPA1 expressed in HEK293 cells assessed as inhibition of AITC-induced increase in intracellular calcium level pretreated for 5 mins followed by AITC addition by fluo-4-AM dye based fluorescence assay

| Structure (SMILES) | EC50 ([4]; read-out: EC50) | EC50 ([8]; hek293) | EC50 ([13]; read-out: EC50) | Efficacy [1] | IC50 [2] | Efficacy [3] | IC50 [5] | IC50 [6] | IC50 [7] | Efficacy [9] | Efficacy [10] | Efficacy [11] | EC50 ([12]; read-out: EC50) | EC50 [14] | IC50 [15] | IC50 [16] | EC50 ([13]; hek293) | EC50 ([8]; read-out: EC50) | EC50 ([4]; hek293) | EC50 ([12]; hek293) |
| --- | --- | --- | --- | --- | --- | --- | --- | --- | --- | --- | --- | --- | --- | --- | --- | --- | --- | --- | --- | --- |
| CCCCCc1cc(O)c2c(c1)O[C@@]1(C)CCCC(C)(C)[C@H]1C2 | 2.6 µM |  |  | 48.5% | 5.9 µM | 98.5% | 3.9 µM | 8 µM | > 100 µM | < 10% | 17.5% | 31.7% | 5.8 µM | 0.29 µM | 17.1 µM | 0.27 µM | Not Active | 6.7 µM |  |  |
| CCCCCc1cc(O)c2c(c1)O[C@]1(C)CCCC(C)(C)[C@H]1C2 |  | Not Active |  | < 10% | > 100 µM | 95.2% | > 100 µM | > 50 µM | > 100 µM | < 10% | < 10% | 41.3% | 8.4 µM | 0.23 µM | > 100 µM | 0.26 µM | Not Active |  | Not Active |  |
| CCCCCc1cc(O)c2c(c1)O[C@]1(C)CC[C@@H](I)C(C)(C)[C@H]1C2 |  | Not Active |  | < 10% | > 100 µM | 90% | > 100 µM | > 50 µM | 2.3 µM | < 10% | < 10% | < 10% |  | 2 µM | 7.2 µM | 4.8 µM | Not Active |  | Not Active | Not Active |

The next lines start with results.

| EC50 ([4]; read-out: EC50) | EC50 ([8]; hek293) | EC50 ([13]; read-out: EC50) | Structure (SMILES) | Efficacy [1] | IC50 [2] | Efficacy [3] | IC50 [5] | IC50 [6] | IC50 [7] | Efficacy [9] | Efficacy [10] | Efficacy [11] | EC50 ([12]; read-out: EC50) | EC50 [14] | IC50 [15] | IC50 [16] | EC50 ([13]; hek293) | EC50 ([8]; read-out: EC50) | EC50 ([4]; hek293) | EC50 ([12]; hek293) |
| --- | --- | --- | --- | --- | --- | --- | --- | --- | --- | --- | --- | --- | --- | --- | --- | --- | --- | --- | --- | --- |
| 1.8 µM | Not Active | 3.3 µM | CCCCCc1cc(O)c2c(c1)O[C@]1(C2)[C@@H](C)CCCC1(C)C | 43.9% | 7.1 µM | 108% | 4.3 µM | 12.8 µM | 13.7 µM | 13.9% | < 10% | 37.7% | 4.7 µM | 0.49 µM | > 50 µM | 0.45 µM |  |  |  |  |
| 4.9 µM | Not Active |  | CCCCCc1cc(O)c2c(c1)O[C@]1(C2)[C@H](C)CCCC1(C)C | 32.3% | 37 µM | 102% | 39.7 µM | > 50 µM | > 50 µM | < 10% | < 10% | 27.5% | 6.4 µM | 1.3 µM | > 50 µM | 1.7 µM | Not Active |  |  |  |
|  | Not Active | 18 µM | CCCCCc1cc(O)c2c(c1)OC(C)(CCCC(C)(C)c1ccc(C)cc1)CC2 (stereo unspecified) | < 10% | > 50 µM | 120% | > 100 µM | > 50 µM | 4.5 µM | 18% | < 10% | < 10% |  | 0.35 µM | > 100 µM | 0.32 µM |  |  | Not Active | Not Active |
